Measured values as given in patent US9695128B2, “Ethynyl derivatives” (Hoffmann-La Roche Inc., priority 2014, dated 2017).

What was measured:
EPM in rats = details: cited from earlier work
[1] = test system: marble burying test in mice; details: reported by Addex 2010; cited from earlier work
EPM in mice = details: reported by Addex 2010; cited from earlier work
[2] = molecular target: recombinant human mGlu4 expressed in HEK293 cells (Homo sapiens (Human), UniProt Q14833); experiment: Ca2+ mobilization in vitro assay, mGlu4 PAM (with EC20 of L-AP4); assay type: cell-based; details: for Emax: HEK293, maximal response in % of the maximal stimulatory effect obtained with saturating concentrations of L-AP4, read-out: Eff. (%); for EC50: human mGlu4 in HEK293 cells, Ca2+ mobilization, L-AP4 at EC20, read-out: EC50 (nM) mGlu4PAM
Method: Determination of EC50 Values Using a Ca2+ Mobilization in vitro Assay on Recombinant Human mGlu4 Expressed in HEK293 Cells:
A monoclonal HEK-293 cell line stably transfected with a cDNA encoding for the human mGlu4 receptor was generated; for the work with mGlu4 Positive Allosteric Modulators (PAMs), a cell line with low receptor expression levels and low constitutive receptor activity was selected to allow the differentiation of agonistic versus PAM activity. Cells were cultured according to standard protocols (Freshney, 2000) in Dulbecco's Modified Eagle Medium with high glucose supplemented with 1 mM glutamine, 10% (vol/vol) heat-inactivated bovine calf serum, Penicillin/Streptomycin, 50 μg/ml hygromycin and 15 μg/ml blasticidin (all cell culture reagents and antibiotics from Invitrogen, Basel, Switzerland). • About 24 hrs before an experiment, 5×10^4 cells/well were seeded in poly-D-lysine coated, black/clear-bottomed 96-well plates. The cells were loaded with 2.5 μM Fluo-4AM in loading buffer (1×HBSS, 20 mM HEPES) for 1 hr at 37° C. and washed five times with loading buffer. The cells were transferred into a Functional Drug Screening System 7000 (Hamamatsu, Paris, France), and 11 half logarithmic serial dilutions of test compound at 37° C. were added and the cells were incubated for 10-30 min. with on-line recording of fluorescence. Following this pre-incubation step, the agonist (2S)-2-amino-4-phosphonobutanoic acid (L-AP4) was added to the cells at a concentration corresponding to EC20 with on-line recording of fluorescence; in order to account for day-to-day variations in the responsiveness of cells, the EC20 of L-AP4 was determined immediately ahead of each experiment by recording of a full dose-response curve of L-AP4.
Responses were measured as peak increase in fluorescence minus basal (i.e. fluorescence without addition of L-AP4), normalized to the maximal stimulatory effect obtained with saturating concentrations of L-AP4. Graphs were plotted with the % maximal stimulatory using XLfit, a curve fitting program that iteratively plots the data using Levenburg Marquardt algorithm. The single site competition analysis equation used was y=A+((B−A)/(1+((x/C)D))), where y is the % maximal stimulatory effect, A is the minimum y, B is the maximum y, C is the EC50, x is the log 10 of the concentration of the competing compound and D is the slope of the curve (the Hill Coefficient). From these curves the EC50 (drug concentration at which 50% of the maximal receptor activation was achieved), the Hill coefficient as well as the maximal response in % of the maximal stimulatory effect obtained with saturating concentrations of L-AP4 were calculated (see FIG. 1).
A depression of the signal observed after addition of the EC20 concentration of L-AP4 was indicative of an inhibitory activity of the test compound.

[3] = test system: 6-OHDA rodent model of PD; details: cited from earlier work
mice treated with MPTP = details: cited from earlier work

recombinant human mGlu4 expressed in HEK293 cells, sequence (Q14833 33-912): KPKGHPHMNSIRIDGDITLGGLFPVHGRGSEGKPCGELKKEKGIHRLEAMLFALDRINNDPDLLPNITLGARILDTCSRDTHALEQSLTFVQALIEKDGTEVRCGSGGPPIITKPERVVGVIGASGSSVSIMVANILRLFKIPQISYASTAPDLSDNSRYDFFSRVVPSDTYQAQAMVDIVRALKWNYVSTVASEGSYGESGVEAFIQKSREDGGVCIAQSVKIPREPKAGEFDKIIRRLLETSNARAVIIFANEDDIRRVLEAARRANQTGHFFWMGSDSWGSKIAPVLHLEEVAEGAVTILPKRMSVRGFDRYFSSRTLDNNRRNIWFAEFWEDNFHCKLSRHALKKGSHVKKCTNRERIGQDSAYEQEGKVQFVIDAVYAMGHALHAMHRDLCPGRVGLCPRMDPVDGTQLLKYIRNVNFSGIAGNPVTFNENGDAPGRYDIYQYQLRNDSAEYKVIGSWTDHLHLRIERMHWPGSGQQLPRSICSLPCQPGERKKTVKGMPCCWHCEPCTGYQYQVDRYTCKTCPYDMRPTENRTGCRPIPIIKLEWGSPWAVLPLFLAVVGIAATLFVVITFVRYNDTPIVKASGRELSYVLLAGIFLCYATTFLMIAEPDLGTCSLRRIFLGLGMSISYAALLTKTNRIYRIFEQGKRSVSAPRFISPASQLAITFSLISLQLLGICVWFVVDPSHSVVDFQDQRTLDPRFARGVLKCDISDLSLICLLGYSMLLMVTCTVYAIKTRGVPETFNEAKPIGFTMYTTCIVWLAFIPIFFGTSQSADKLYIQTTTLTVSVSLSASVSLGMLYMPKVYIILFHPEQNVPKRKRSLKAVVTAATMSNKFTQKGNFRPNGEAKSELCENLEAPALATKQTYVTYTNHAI

| Structure (SMILES) | Emax [2] | EC50 [2] | other results |
| --- | --- | --- | --- |
| Cc1ccnc(Nc2nc(-c3cn[nH]c3)c(C)s2)n1 [ADX88178] | – | – | profile in rat EPM test (EPM in rats; rat, after oral dosing): anxiolytic-like profile; activity in EPM (EPM in rats; rats, reported by Addex 2010): active; activity in marble burying test [1]: active; activity in EPM (EPM in mice): active |
| CC1CCCC2C(=O)N(c3ccc(C#Cc4ccccc4)cc3Cl)C(=O)N12 (racemic) [Example 10, (5RS,8aRS)-2-[2-Chloro-4-(2-phenylethynyl)phenyl]-5-methyl-6,7,8,8a-tetrahydro-5H-imidazo[1,5-a]pyridine-1,3-dione] | 232% | 256 nM | – |
| CC(C)N1C(=O)N(c2c(F)cc(C#Cc3ccccc3)cc2F)C(=O)C1C (racemic) [Example 2, (5RS)-3-[2,6-Difluoro-4-(2-phenylethynyl)phenyl]-1-isopropyl-5-methyl-imidazolidine-2,4-dione] | 107% | 104 nM | – |
| CC(C)(C)N1CC(=O)N(c2c(F)cc(C#Cc3ccccc3)cc2F)C1=O [Example 8, 1-tert-Butyl-3-[2,6-difluoro-4-(2-phenylethynyl)phenyl]imidazolidine-2,4-dione] | 143% | 222 nM | – |
| CC(C)N1C(=O)N(c2c(F)cc(C#Cc3ccccc3)cc2F)C(=O)C1(C)C [Example 3, 3-[2,6-Difluoro-4-(2-phenylethynyl)phenyl]-1-isopropyl-5,5-dimethyl-imidazolidine-2,4-dione] | 98% | 286 nM | – |
| O=C1C2Cc3ccccc3CN2C(=O)N1c1c(F)cc(C#Cc2ccccc2)cc1F (racemic) [Example 9, (10aRS)-2-[2,6-Difluoro-4-(2-phenylethynyl)phenyl]-10,10a-dihydro-5H-imidazo[1,5-b]isoquinoline-1,3-dione] | 99% | 56 nM | – |
| O=C1C2Cc3ccccc3N2C(=O)N1c1c(F)cc(C#Cc2ccccc2)cc1F (racemic) [Example 5, (3aRS)-2-[2,6-Difluoro-4-(2-phenylethynyl)phenyl]-3a,4-dihydroimidazo[1,5-a]indole-1,3-dione] | 103% | 188 nM | – |
| CC1CCCC2C(=O)N(c3c(F)cc(C#Cc4cccnc4)cc3Cl)C(=O)N12 (racemic) [Example 11, (5RS,8aRS)-2-[2-Chloro-6-fluoro-4-[2-(3-pyridyl)ethynyl]phenyl]-5-methyl-6,7,8,8a-tetrahydro-5H-imidazo[1,5-a]pyridine-1,3-dione] | 140% | 180 nM | – |
| CC1COCC2C(=O)N(c3c(F)cc(C#Cc4ccccc4)cc3F)C(=O)N12 (racemic) [Example 4, (5RS,8aRS)-2-[2,6-Difluoro-4-(2-phenylethynyl)phenyl]-5-methyl-5,6,8,8a-tetrahydroimidazo[5,1-c][1,4]oxazine-1,3-dione] | 188% | 204 nM | – |
| O=C1C2CCc3ccccc3N2C(=O)N1c1c(F)cc(C#Cc2ccccc2)cc1F (racemic) [Example 6, (3aRS)-2-[2,6-Difluoro-4-(2-phenylethynyl)phenyl]-4,5-dihydro-3aH-imidazo[1,5-a]quinoline-1,3-dione] | 110% | 74 nM | – |
| O=C1CN(C2CC2)C(=O)N1c1c(F)cc(C#Cc2ccccc2)cc1F [Example 12, 1-Cyclopropyl-3-[2,6-difluoro-4-(2-phenylethynyl)phenyl]imidazolidine-2,4-dione] | 113% | 370 nM | – |
| CC(C)N1CC(=O)N(c2c(F)cc(C#Cc3ccccc3)cc2F)C1=O [Example 1, 3-[2,6-Difluoro-4-(2-phenylethynyl)phenyl]-1-isopropyl-imidazolidine-2,4-dione] | 154% | 441 nM | – |
| N[C@@H](CCP(=O)(O)O)C(=O)O [L-AP4, (2S)-2-amino-4-phosphonobutanoic acid] | – | – | neuroprotective effects [3]: demonstrated neuroprotective effects |
| CC(C)N1C(=O)N(c2c(F)cc(C#Cc3ccccc3)cc2F)C(=O)C12COC2 [Example 13, 7-[2,6-Difluoro-4-(2-phenylethynyl)phenyl]-5-isopropyl-2-oxa-5,7-diazaspiro[3.4]octane-6,8-dione] | 100% | 230 nM | – |
| CC1(C)C(=O)N(c2c(F)cc(C#Cc3ccccc3)cc2F)C(=O)N1c1ccccc1 [Example 7, 3-[2,6-Difluoro-4-(2-phenylethynyl)phenyl]-5,5-dimethyl-1-phenyl-imidazolidine-2,4-dione] | 222% | 242 nM | – |
| O=C(Nc1ccccc1)C12CC1/C(=N\O)c1ccccc1O2 (single isomer, unassigned; (-)) [(−)-PHCCC] | – | – | nigrostriatal degeneration (mice treated with MPTP): reduced nigrostriatal degeneration |
